The results in this text go back to publication PMC9605497, “Potential of Epidermal Growth Factor-like Peptide from the Sea Cucumber Stichopus horrens to Increase the Growth of Human Cells: In Silico Molecular Docking Approach” (Marine Drugs, 2022).

Entries after “also recorded” stand apart in the source; their conditions may differ.

This assay deals with human melanoma cells (CRL-1872). The experiment in a line: Cell morphology observation. The assay is classed as cell-based. As to the method: Human melanoma cells (CRL-1872) were purchased from ATCC, Rocksville, MD, USA. Cells were cultured in a complete growth medium, which consisted of Minimum Essential Medium (MEM) (Gibco, Waltham, MA, USA) supplemented with 10% fetal bovine serum (FBS) (Invitrogen, Waltham, MA, USA) and 1% antibiotic–antimycotic (Invitrogen, Waltham, MA, USA), in a humidified incubator at 37 °C, equilibrated with 5% CO2. Cells were subcultured every two days until reaching confluency in T25 flask (TPP, Trasadingen, Switzerland) before being seeded in designated plates for specific experiment objectives.
Cells were seeded at 80,000 cells per well in a 24-well plate containing 400 µL of complete growth medium. After 24 h of culture, the medium was removed, washed once with PBS, replaced with serum-free medium and left to culture for another 16 h. The medium was removed and replaced with corresponding treatment medium, each in triplicates; 10 nM and 50 nM of Sh-EGFl-1, 10 nM and 50 nM of rhEGF were used as a positive control and serum-free medium was used as a negative control. Cells were cultured in a single plate to track their growth every 24 h during the four days of experiment. […] A crossed line was made at the bottom of each well to mark the four cell-counting areas that were recorded daily using a microscope digital camera. Cells were counted manually based on the images visualized using ImageJ version 2.0.

[1] abbreviates: 50 nM, recovery from serum starvation.

With “H-MNSDSECPLSHDGYCLHDGVCMYIEALDKYACNCVVGYIGERCQYRDLKWWELR-OH (disulfide) [rhEGF, Recombinant human EGF purchased from Thermo Scientific, reference compound]”, the “cell morphology / attachment” value under setting [1] is recorded as “better recovery as the cells were elongated when they attached to the flask surface”.
For the substance “H-NINECFSSPCENQGICQDEIDGYNCVCQPGFTGTHCESSMLNHVI-OH (disulfide) [Sh-EGFl-1, 45 amino acid EGF-like peptide from Stichopus horrens contig 498513, synthesized by Fmoc solid-phase peptide chemistry]”, the “cell morphology / attachment” value by setting is: (10 nM, recovery from serum starvation and after medium change at 48 h) “better recovery as the cells were elongated when they attached to the flask surface; also recorded: most of the cells to lose attachment from the flask except in the presence of 10 nM Sh-EGFl-1”; under setting [1], “better recovery as the cells were elongated when they attached to the flask surface”.
